The data set in a line: activity coefficient (dimensionless); of the first substance listed, at infinite dilution; xn = mol fraction of the nth substance listed. As to conditions: Liquid, Chromatography, x1 = 0.

SMILES strings stand for the structures. ± gives the expanded uncertainty stated by the source.

Consider `CCC(=O)CC` [pentan-3-one] + COCC[N+]1(C)CCOCC1.O=S(=O)([N-]S(=O)(=O)C(F)(F)F)C(F)(F)F, for which the activity coefficient is, setting by setting: (318.15 K) 0.895 ± 0.057; (328.15 K) 0.912 ± 0.058; (338.15 K) 0.927 ± 0.059; (348.15 K) 0.941 ± 0.059; (358.15 K) 0.952 ± 0.06; (368.15 K) 0.967 ± 0.061.

On to `Cc1ccccc1C` [1,2-dimethylbenzene] + COCC[N+]1(C)CCOCC1.O=S(=O)([N-]S(=O)(=O)C(F)(F)F)C(F)(F)F, for which the activity coefficient reads like this: (318.15 K) 2.75 ± 0.19; (328.15 K) 2.71 ± 0.18; (338.15 K) 2.68 ± 0.18; (348.15 K) 2.65 ± 0.18; (358.15 K) 2.61 ± 0.18; (368.15 K) 2.58 ± 0.18.

Regarding `COC(C)=O` [methyl ethanoate] + COCC[N+]1(C)CCOCC1.O=S(=O)([N-]S(=O)(=O)C(F)(F)F)C(F)(F)F, the activity coefficient (318.15 K) stood at 0.684 ± 0.046; the activity coefficient (328.15 K) was 0.7 ± 0.047; the activity coefficient (338.15 K) was found to be 0.714 ± 0.048; the activity coefficient (348.15 K) came out at 0.729 ± 0.048; the activity coefficient (358.15 K) was found to be 0.74 ± 0.049; the activity coefficient (368.15 K) is 0.754 ± 0.05.

Consider `CC(C)OC(C)C` [diisopropyl ether] + COCC[N+]1(C)CCOCC1.O=S(=O)([N-]S(=O)(=O)C(F)(F)F)C(F)(F)F, for which the activity coefficient is 10.1 ± 0.7 (318.15 K); 9.8 ± 0.67 (328.15 K); 9.55 ± 0.65 (338.15 K); 9.26 ± 0.63 (348.15 K); 8.98 ± 0.61 (358.15 K); 8.75 ± 0.6 (368.15 K).

As to `CCOC(C)(C)C` [2-ethoxy-2-methylpropane] + COCC[N+]1(C)CCOCC1.O=S(=O)([N-]S(=O)(=O)C(F)(F)F)C(F)(F)F, the activity coefficient turned out to be 9.5 ± 0.65 (318.15 K); 9.21 ± 0.63 (328.15 K); 8.97 ± 0.61 (338.15 K); 8.75 ± 0.6 (348.15 K); 8.49 ± 0.58 (358.15 K); 8.3 ± 0.57 (368.15 K).

Turning to `C1COCCO1` [1,4-dioxane] + COCC[N+]1(C)CCOCC1.O=S(=O)([N-]S(=O)(=O)C(F)(F)F)C(F)(F)F, the activity coefficient by setting is: (318.15 K) 0.57 ± 0.041; (328.15 K) 0.596 ± 0.042; (338.15 K) 0.615 ± 0.043; (348.15 K) 0.638 ± 0.044; (358.15 K) 0.653 ± 0.045; (368.15 K) 0.674 ± 0.046.

For `CC(C)(C)O` [2-methylpropan-2-ol] + COCC[N+]1(C)CCOCC1.O=S(=O)([N-]S(=O)(=O)C(F)(F)F)C(F)(F)F, the activity coefficient runs as follows: (318.15 K) 2.22 ± 0.15; (328.15 K) 2.03 ± 0.14; (338.15 K) 1.88 ± 0.13; (348.15 K) 1.75 ± 0.12; (358.15 K) 1.62 ± 0.11; (368.15 K) 1.52 ± 0.1.

As for `CCCCCC` [hexane] + COCC[N+]1(C)CCOCC1.O=S(=O)([N-]S(=O)(=O)C(F)(F)F)C(F)(F)F, the activity coefficient (318.15 K) came out at 36.1 ± 2.5; the activity coefficient (328.15 K) was determined as 32.6 ± 2.2; the activity coefficient (338.15 K) amounted to 29.8 ± 2; the activity coefficient (348.15 K) amounted to 27.2 ± 1.9; the activity coefficient (358.15 K) was 25 ± 1.7; the activity coefficient (368.15 K) stood at 23.1 ± 1.6.

On to `CC#N` [acetonitrile] + COCC[N+]1(C)CCOCC1.O=S(=O)([N-]S(=O)(=O)C(F)(F)F)C(F)(F)F, for which the activity coefficient was determined as 0.423 ± 0.035 (318.15 K); 0.426 ± 0.035 (328.15 K); 0.428 ± 0.035 (338.15 K); 0.431 ± 0.035 (348.15 K); 0.433 ± 0.035 (358.15 K); 0.436 ± 0.035 (368.15 K).

With `C1CCCCCC1` [cycloheptane] + COCC[N+]1(C)CCOCC1.O=S(=O)([N-]S(=O)(=O)C(F)(F)F)C(F)(F)F, the activity coefficient reads like this: (318.15 K) 26.2 ± 1.8; (328.15 K) 23.6 ± 1.6; (338.15 K) 21.5 ± 1.5; (348.15 K) 19.7 ± 1.3; (358.15 K) 18.1 ± 1.2; (368.15 K) 16.6 ± 1.1.

For the origin of these results see the NIST ThermoML archive (doi:10.1016/j.jct.2011.11.021).
